In US7459281B2, “Docetaxel immunoassay” (Saladax Biomedical Inc., priority 2005, dated 2008):

Experiments:
[1] = system: docetaxel monoclonal antibody (produced in Example 11); assay: Indirect competitive microtiter plate ELISA, IC50 and cross-reactivity, monoclonal antibodies to C7 substituted docetaxel acid derivative conjugate; format: binding, mouse (BALB/c); details: monoclonal antibody of Example 11, immunogen of Examples 9a & 9b; microtiter plate prepared as in Example 13
Procedure: For monoclonal antibodies starting […] before the fusion, the mice were injected i.p. with 400 μg (3 days before fusion), 200 μg (2 days before fusion), and 200 μg (1 day before fusion) on three successive days with either docetaxel-BTG or docetaxel-KLH (depending on the original immunogen) in PBS. According to the protocol of Coligan et al. spleen cells were isolated from the selected mice and fused with 2×10^7 cells of the myeloma fusion partner cell line (SP2/o) using 50% polyethylene glycol 1500 [Coligan, J. E. et al., eds., Current Protocols in Immunology, 2.5.1-2.5.8, (1992), Wiley & Sons, NY.] […]
Antibodies were screened by Enzyme-Linked Immunosorbent Assay (ELISA) method. […] Following the incubation for color development, 50 μL of stop solution (1.5% sodium fluoride in di H2O) was added to each well to stop the color development and after 10 seconds of shaking the absorbance was determined at 650 nm on a 96-well plate reader. The amount of antibody in a well was proportional to the absorbance measured. Samples with an absorbance of three times background or greater were designated as positive.
(§1) Docetaxel concentrations were measured by an indirect competitive Enzyme-Linked Immunosorbent Assay (ELISA) method. […]

[2] = system: docetaxel antibody (antiserum produced in Example 11 with C7 substituted docetaxel acid derivative immunogen); assay: Indirect competitive microtiter plate ELISA, IC50 and cross-reactivity, polyclonal antibodies to C7 substituted docetaxel acid derivative conjugate; format: binding, mouse (BALB/c); details: antibody of Example 11, immunogen of Example 9a
Procedure: Ten Female BALB/c mice were immunized i.p. with 100 μg/mouse of docetaxel-immunogen: either docetaxel-BTG as prepared in Example 9a or docetaxel-KLH immunogen as prepared in Example 9b emulsified in Complete Freund's Adjuvant. After the initial injection mice were boosted once after four weeks with 100 μg/mouse of the same immunogen emulsified in Incomplete Freund's Adjuvant. Ten days after the boosts test bleeds from each mouse were obtained by orbital bleed. The anti-serum from the last test bleeds containing docetaxel antibodies from each of the mice were evaluated by the procedures in Examples 14a and 16 to determine their reactivity to docetaxel and their cross reactivity to 10-O-Deacytlbaccatin III and, paclitaxel [Taxol].
Antibodies were screened by Enzyme-Linked Immunosorbent Assay (ELISA) method. This method for screening docetaxel antibodies (produced in Examples 10 and 11) was performed with the microtiter plates that were sensitized with docetaxel-BSA as described in Examples 12 and 13. The antibody screening assay was performed by diluting the antisera containing docetaxel antibodies to 1:100, 1:1,000, 1:10,000 and 1:100,000 in phosphate buffered saline containing 0.1% BSA and 0.01% thimerosal. To each well of docetaxel-BSA sensitized wells (prepared in Examples 12 and 13) 100 μL of diluted antibody was added and incubated for 10 minutes at room temperature with shaking. During this incubation antibody binds to the docetaxel-conjugate in the well. The wells of the plates were washed three times with 0.02 M TRIS, 0.9% NaCl, 0.5% Tween-80 and 0.001% Thimerosal, pH 7.8 to remove any unbound antibody. […] Following the incubation for color development, 50 μL of stop solution (1.5% sodium fluoride in di H2O) was added to each well to stop the color development and after 10 seconds of shaking the absorbance was determined at 650 nm with a 96-well plate reader. The amount of antibody in a well was proportional to the absorbance measured and was expressed as the dilution (titer) resulting in an absorbance of 1.5. Titers were determined by graphing log antibody dilution of the antibody measured (x-axis) vs. absorbance 650 nm (y-axis) and extrapolating the titer at an absorbance of 1.5. The titer determined the concentration (dilution) of antibody used in the indirect competitive Microtiter plate assay described in Examples 15 and 16.
as §1

[3] = microtiter plate prepared as in Example 12
[4] = microtiter plate prepared as in Example 13

| SMILES | percent cross-reactivity relative to docetaxel (ratio of IC50 for docetaxel to IC50 for analyte) [1] | percent cross-reactivity relative to docetaxel (ratio of IC50 for docetaxel to IC50 for analyte) [2, 3] | percent cross-reactivity relative to docetaxel (ratio of IC50 for docetaxel to IC50 for analyte) [2, 4] |
| --- | --- | --- | --- |
| CC(=O)O[C@@]12CO[C@@H]1CC(O)[C@@]1(C)C(=O)[C@H](O)C3=C(C)C(O)C[C@@](O)([C@@H](OC(=O)c4ccccc4)[C@H]21)C3(C)C (stereo partly drawn) [10-O-Deacytlbaccatin III, 10-O-Deacetylbaccatin III] | less than 1.0% | less than 0.02% | less than 0.01% |
| CC(=O)O[C@H]1C(=O)[C@@]2(C)[C@H]([C@H](OC(=O)c3ccccc3)[C@]3(O)C[C@H](OC(=O)[C@H](O)[C@@H](NC(=O)c4ccccc4)c4ccccc4)C(C)=C1C3(C)C)[C@]1(OC(C)=O)CO[C@@H]1C[C@@H]2O [Paclitaxel, paclitaxel] | less than 12% | less than 2% | less than 1% |
